These results are taken from ChEMBL document CHEMBL1121380, “Perspective on the design and biochemical pharmacology of inhibitors of thymidylate synthetase” (J Med Chem, 1980).

The nature of series [1]: Michaelis-Menten constant for Uridine phosphorylase.
Series [2] is described as follows: In vitro inhibition against mammalian Uridine phosphorylase.
Substrate in series [3]: O=c1[nH]c(=S)ccn1[C@H]1C[C@H](O)[C@@H](COP(=O)(O)O)O1
Description: Michaelis-Menten constant for dTMP synthetase. Particulars: Lacticaseibacillus casei.

The term Km denotes the concentration of substrate that gives half-maximal velocity. As a reminder, the Ki is a dissociation constant, usually derived from enzyme kinetics or from competition with a known ligand. Low values mean higher affinity, high ones lower affinity.

With `C[C@H]1OC(n2ccc(=O)[nH]c2=O)[C@H](O)[C@@H]1O` (stereo partly drawn), the Michaelis constant (Km) in series [1] came out at 1000 µM. Regarding `Oc1ncc(Cc2ccccc2)c(O)n1`, the Ki in series [2] is around 1 µM.

B1: Thymidylate synthase (Lactobacillus casei), P00469 (protein)
chain: MLEQPYLDLAKKVLDEGHFKPDRTHTGTYSIFGHQMRFDLSKGFPLLTTKKVPFGLIKSELLWFLHGDTNIRFLLQHRNHIWDEWAFEKWVKSDEYHGPDMTDFGHRSQKDPEFAAVYHEEMAKFDDRVLHDDAFAAKYGDLGLVYGSQWRAWHTSKGDTIDQLGDVIEQIKTHPYSRRLIVSAWNPEDVPTMALPPCHTLYQFYVNDGKLSLQLYQRSADIFLGVPFNIASYALLTHLVAHECGLEVGEFIHTFGDAHLYVNHLDQIKEQLSRTPRPAPTLQLNPDKHDIFDFDMKDIKLLNYDPYPAIKAPVAV
As to B1, the Km in series [3] turned out to be 70 µM.
